Assay results as given in publication PMC4150853 (Biochemical and biophysical research communications, 2014).

How the values were obtained:
[1] = target: T1, α2A adrenergic receptor (α2AAR) (Mus musculus, UniProt Q01338); test: competition radioligand binding with 3H-RX821002
T1 sequence (Q01338 1-465): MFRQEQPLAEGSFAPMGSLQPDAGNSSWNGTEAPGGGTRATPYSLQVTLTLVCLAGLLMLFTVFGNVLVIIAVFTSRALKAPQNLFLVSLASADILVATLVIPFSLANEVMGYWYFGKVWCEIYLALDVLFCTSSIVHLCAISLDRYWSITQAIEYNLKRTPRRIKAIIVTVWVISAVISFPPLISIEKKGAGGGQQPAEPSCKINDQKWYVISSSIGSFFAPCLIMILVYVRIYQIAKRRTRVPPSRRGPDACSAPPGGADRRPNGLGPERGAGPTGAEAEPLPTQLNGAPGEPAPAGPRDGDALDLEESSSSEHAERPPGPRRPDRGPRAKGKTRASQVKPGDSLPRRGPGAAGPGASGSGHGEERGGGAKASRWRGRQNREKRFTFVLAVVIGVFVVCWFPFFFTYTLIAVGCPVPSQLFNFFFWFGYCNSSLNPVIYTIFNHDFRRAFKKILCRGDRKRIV

[2] = target: T1, α2A adrenergic receptor (α2AAR); test: […]GTPγS binding, […] NE, nearly two-fold induction; format: cell-based
[3] = target: T1, α2A adrenergic receptor (α2AAR); test: radioligand of the competition binding assay

SMILES	Ki [1]	also measured
CN(C)CCC=C1c2ccccc2CCc2ccccc21 [AMI, amitriptyline]	0.33 µM	
CN(C)CCC[C@@]1(c2ccc(F)cc2)OCc2cc(C#N)ccc21 [ESC, escitalopram]	79.4 µM	
CN(C)CCCN1c2ccccc2CCc2ccccc21 [IMI, imipramine]	5.07 µM	
NC[C@H](O)c1ccc(O)c(O)c1 [NE, norepinephrine]		[35S]GTPγS binding, 10 μM NE, nearly two-fold induction [2]: G protein coupling response by α2AARs is seen only in response the endogenous agonist NE, which drives a nearly two-fold induction
COC1(C2=NCCN2)COc2ccccc2O1 (centres unmarked) [RX821002]		radioligand of the competition binding assay [3]: the radioligand was a ^3H-labeled form of the α2AR antagonist RX821002
